# Reference: PubChem BioAssay (NCI)
#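 How tested: cells in 96-well plates exposed to compound for 48 hours at five concentrations. Abbreviation: GI50, concentration required for 50% inhibition of growth. TGI: concentration producing complete growth inhibition.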
# Assays:
# Experiment in all cases: NCI tumour cell line growth inhibition, 48 h
# [1] = tested on: BT-549 breast
# [2] = tested on: DMS 114 small cell lung
# [3] = tested on: SNB-78 CNS
# [4] = tested on: DLD-1 colon
# [5] = tested on: DMS 273 small cell lung
# [6] = tested on: LXFL 529 NSCLC
# [7] = tested on: P388/ADR leukemia
# [8] = tested on: M19-MEL melanoma
# [9] = tested on: SN12K1 renal
# [10] = tested on: P388 leukemia
# [11] = tested on: KM20L2 colon
# [12] = tested on: HOP-18 NSCLC
# [13] = tested on: XF 498 CNS
# [14] = tested on: RXF-631 renal
smiles,measurement,setting,value
CC(=O)OCCCCN1C(=O)CSc2ccccc21,TGI,[1],> 100 µM
CC(C)CNCCc1ccccn1,TGI,[1],> 100 µM
CCOc1ccccc1Nc1ccc(N)cc1S(=O)(=O)O,TGI,[1],> 100 µM
COc1ccc(C(=O)CCN(C)C)c2ccccc12,TGI,[1],37.6 µM
O=Cc1ccccc1CCn1c(=O)c2cc3c(=O)n(CCc4ccccc4C=O)c(=O)c3cc2c1=O,TGI,[2],> 100 µM
same,TGI,[3],> 100 µM
same,TGI,[4],> 100 µM
same,TGI,[5],> 100 µM
same,TGI,[6],> 100 µM
CN1c2c(nc(N)[nH]c2=O)NCC1CCNc1ccc(C(=O)NC(CCC(=O)O)C(=O)O)cc1 (stereo unspecified),TGI,[7],1410 µM
same,TGI,[2],1770 µM
same,TGI,[8],778 µM
same,TGI,[9],1810 µM
same,TGI,[10],651 µM
same,TGI,[11],2280 µM
same,TGI,[3],2660 µM
same,TGI,[1],2750 µM
same,TGI,[12],2950 µM
same,TGI,[4],2350 µM
same,TGI,[5],1560 µM
same,TGI,[13],2150 µM
N#Cc1ccc([N+](=O)[O-])cc1NC(N)=S,TGI,[8],> 100 µM
same,TGI,[14],> 100 µM
same,TGI,[11],> 100 µM
same,TGI,[3],> 100 µM
same,TGI,[12],> 100 µM
same,TGI,[5],> 100 µM
same,TGI,[13],> 100 µM
same,TGI,[6],32.6 µM
CCOc1cc(C2SCC(=O)N2c2ccc3c(c2)Oc2c(Cl)c4c(c(Cl)c2=N3)Oc2cc(N3C(=O)CSC3c3ccc(O)c(OCC)c3)ccc2N=4)ccc1O (stereo unspecified),TGI,[1],> 100 µM
COc1nc2ccc(CNc3ccc(C(=O)NC(CCC(=O)O)C(=O)O)cc3)cc2nc1OC (stereo unspecified),TGI,[1],> 100 µM
COc1cc(NC(C)=O)ccc1C(=O)N/N=C/c1ccco1,TGI,[1],> 100 µM
CC[C@@H]1CSC(/C=C/C2OC3OC(C)(C)OC3C3OC(C)(C)OC23)=N1 (stereo partly specified),TGI,[1],13.4 µM
CC(ON1[C@](C)(c2ccccc2)CC[C@@]1(C)c1ccccc1)c1ccccc1 (stereo partly specified),TGI,[1],42.2 µM
CC(C)C1=CC2=CC[C@@H]3[C@](C)(CCC[C@@]3(C)C(=O)O)[C@H]2CC1,TGI,[2],> 100 µM
same,TGI,[8],> 100 µM
same,TGI,[14],> 100 µM
same,TGI,[11],> 100 µM
same,TGI,[3],> 96.2 µM
same,TGI,[12],> 100 µM
same,TGI,[4],> 100 µM
same,TGI,[5],> 100 µM
same,TGI,[13],> 100 µM
same,TGI,[6],> 100 µM
CC(=O)OCC1=CC2OC(=O)C3=COC(OC4OC(CO)C(O)C(O)C4O)C1C32 (stereo unspecified),TGI,[1],> 100 µM
O=C1CCCCN1,TGI,[7],> 1120 µM
same,TGI,[2],> 1120 µM
same,TGI,[8],> 1120 µM
same,TGI,[9],> 1120 µM
same,TGI,[10],> 707 µM
same,TGI,[11],> 1120 µM
same,TGI,[3],> 1120 µM
same,TGI,[12],> 1120 µM
same,TGI,[4],> 1120 µM
same,TGI,[5],> 1120 µM
same,TGI,[13],> 112 µM
O=C1/C(=C/C=C/c2ccccc2)N=C(c2ccccc2)N1c1ccc(S(=O)(=O)Nc2nccs2)cc1,TGI,[1],61.4 µM
C1=CC=C2NCCc3cccc(c3)CCNC3=CC=CC=CC3=NCCCCCCN=C2C=C1,TGI,[2],26.1 µM
same,TGI,[8],30.3 µM
same,TGI,[14],28 µM
same,TGI,[11],24.8 µM
same,TGI,[3],> 100 µM
same,TGI,[4],> 100 µM
same,TGI,[5],21.9 µM
same,TGI,[6],23.6 µM
CC1(O)C2(c3ccccc3)CCC[N+]1(C)CC2 (stereo unspecified),TGI,[1],> 100 µM
CC1=C[C@H]([C@H]2C=C(C)C(C(N)=O)=CN2Cc2c(Cl)cccc2Cl)N(Cc2c(Cl)cccc2Cl)C=C1C(N)=O,TGI,[1],> 75 µM
CC1=C(SCCO)C(=O)c2ccccc2C1=O,TGI,[1],31.7 µM
Nc1ncnc2c1ncn2[C@@H]1O[C@H](COP(=O)(O)OP(=O)(O)OC[C@H]2O[C@@H](OCCCO)[C@H](O)[C@@H]2O)[C@@H](O)[C@H]1O,TGI,[1],> 100 µM
CN(CCNC(=O)c1nn(-c2ccc(Cl)cc2Cl)c2c1Cc1ccccc1-2)CCNC(=O)c1nn(-c2ccc(Cl)cc2Cl)c2c1Cc1ccccc1-2,TGI,[1],38.2 µM
CC[C@@]1(O)C[C@H](OC2CC(N(C)C)C(OC3CC(O)C(OC4CCC(=O)C(C)O4)C(C)O3)C(C)O2)c2c(cc3c(c2O)C(=O)c2c(O)cccc2C3=O)C1C(=O)OC (stereo partly specified),TGI,[2],0.474 µM
same,TGI,[8],0.799 µM
same,TGI,[11],4.64 µM
same,TGI,[12],1.85 µM
same,TGI,[4],5.46 µM
same,GI50,[13],0.0025 µM
same,TGI,[13],0.294 µM
same,TGI,[6],1.68 µM
O=S(=O)(O)c1cc(S(=O)(=O)O)c2c(N=Nc3ccc(S(=O)(=O)O)c4ccccc34)c(O)ccc2c1,TGI,[1],> 100 µM
CCCCC(=O)c1c(O)ccc2c(C)cc(=O)oc12,TGI,[1],> 100 µM
[C-]#[N+]C(=C\c1ccc(O)cc1)/C(=C/c1ccc(O)cc1)[N+]#[C-],TGI,[1],> 23.1 µM
